# According to PMC8997995, “Amphiphilic Cell-Penetrating Peptides Containing Natural and Unnatural Amino Acids as Drug Delivery Agents” (Cells, 2022):
# Like-named read-outs stand apart in the source and are kept apart here. Non-standard residues stand in square brackets, D forms with d. Residues, ends and D or L forms follow the SMILES beside them. *: point of attachment. 5FAM = O=C1OC2(c3ccc(O)cc3Oc3cc(O)ccc32)c2ccc(C(=O)*)cc21; Dip = N[C@H](C(=O)O)C(c1ccccc1)c1ccccc1
# Tests used:
# [1] = design: method as in earlier work; conditions: cited from earlier work
# Source text: In continuation of our efforts to design cyclic CPPs with improved molecular transporter properties, we report here the design and synthesis of a new class of CPPs, containing R, diphenylalanine (Dip), and W residues (Figure 1), the evaluation of their cytotoxicity, cellular uptake, nanostructure formation, and mechanism of actions.
# CCRF-CEM cells [2] = assay: In vitro cytotoxicity (MTS) in CCRF-CEM cells; type: cell-based, human; conditions: for reduction of cell proliferation: 25 µM, MTS, n = 3
# Experimental: (§1) SK-OV-3, CCRF-CEM, HEK-293, MDA-MB-468, LLC-PK1, and MES-SA were used to determine the cytotoxicity of the synthesized linear and cyclic peptides. About 5000, 10,000, and 50,000 cells were seeded for SK-OV-3, HEK-293, and CCRF-CEM cells, respectively, in 0.1 mL of medium per well of 96-well plates. An appropriate medium was used for each cell line (SK-OV-3: McCoy’s 5A with L-glutamine containing fetal bovine serum (FBS) (10%) and penicillin or streptomycin (1%); CCRF-CEM: RPMI-1640 medium with L-glutamine and sodium bicarbonate containing FBS (10%) and penicillin or streptomycin (1%); MDA-MB-468 cells: DMEM/F12 (1:1) (1×) with L-glutamine and 15 mM HEPES containing FBS (10%) and penicillin or streptomycin (1%); LLC-PK1 cells: Dulbecco’s Modified Eagle’s Medium with 4500 mg/L glucose, L-glutamine and sodium bicarbonate, without sodium pyruvate liquid containing FBS (10%) and penicillin or streptomycin (1%); MES-SA cells: consisting of half SK-OV-3 and half CCRF-CEM media; and HEK-293 cells: Minimum Essential Medium Eagle with Earle’s salts and sodium bicarbonate, without L-glutamine containing FBS (10%) and penicillin or streptomycin (1%)). Then, 20 µL of peptides containing 5% DMSO in water were added to each well.
# (§2) Adhesive cells were detached with 0.05% trypsin/EDTA after 15 min. The suspended cells were seeded in the medium 24 h prior to the experiment according to the previously reported procedure. The medium was changed before adding the peptides for adherent cells. Each concentration 5, 10, 25, 50, and 166 µM (containing 0.8% DMSO) had triplicate wells to minimize possible errors. […] The cell viability was measured by utilizing Multi-Mode Microplate Reader (SpectraMax M5 model, Molecular Devices, San Jose, CA, USA) after adding 20 µL of the MTS reagent to each well and incubating for 3 additional hours. […] The protocol manager was selected “endpoint” on the spectrophotometer’s software (SoftMax Pro 7). The 96-well plates were inserted inside spectrophotometer, and the data were acquired. The percentage of cell viability was calculated using the following equation:(1) =(Average OD values of samples treated with the compound /Average OD values of no treatment samples )∗100
# CCRF-CEM cells [3] = assay: Cellular uptake by flow cytometry in CCRF-CEM cells; type: cell-based, human; conditions: peptide 10 µM, 3 h, no FBS, flow cytometry FITC, n = 3
# Experimental: CCRF-CEM and SK-OV-3 cells were used to measure the cellular uptake of a fluorescent-labeled phosphopeptide (F’-GpYEEI) (2 µM), stavudine (F’-d4T) (2 µM) lamivudine (F’-3TC) (1–2 µM), emtricitabine (F’-FTC) (2 µM), and siRNA (F’-siRNA) (36 nM) with the least toxic concentration for each linear and the cyclic peptide (10 µM). The uptake was measured in the presence and absence of the peptides. The SK-OV-3 (0.5 million) and CCRF-CEM (a million) cells were incubated in each well of 6-well plates with the synthesized peptide and the fluorescent-labeled compound in one well. Another well contained the fluorescent-labeled compound alone for 3 h in an incubator (37 °C in a humidified atmosphere of 5% CO2). […] For more details, please refer back to the cytotoxicity method described above.
# The cells were transferred to FACS analysis tubes after being washed with phosphate-buffered saline (PBS). The cells were centrifuged 2500 RPM for 5 min with Fisher Scientific accuSpin Micro 17 to precipitate the cells and to allow replacing the supernatant. The cells were then vortexed with Nerl Blood Bank Saline pH 7–7.2 (flow cytometry buffer) and transferred to the tube through a sterile cell strainer 40 µm Nylon Mesh. Finally, the cells were resuspended in flow cytometry buffer and analyzed by flow cytometry (FACSVerse model, Becton Dickinson, San Jose, CA, USA) using the FITC channel and the BD FACSuite software. The device was washed before each experiment, and the flow rate was set at medium. Finally, the cells were analyzed by using FITC channel […] argon laser for the excitation and the emitted 519 nm fluorescence for detection. The data presented was based on the FITC-A mean intensity signal for 10,000 cells collected. All assays were performed in triplicates. Results were evaluated to determine whether the peptides are facilitating the fluorescence compound to cross the membrane.
# To determine the mechanism of the cellular uptake, F’-[K(DipR)5] or the physical mixture of the F’-GpYEEI and [DipR]5 were used to measure the fluorescence in the treated CCRF-CEM cells. F’-[K(DipR)5] (5 or 10 µM) or the physical mixture of the F’-GpYEEI (2 µM) and [DipR]5 (5 or 10 µM) were incubated with CCRF-CEM cells over 3 h. After each incubation, the medium containing the peptide and cells was removed. The same protocol as the cellular uptake study was used to prepare the cells as described above. Finally, the cells were resuspended in the buffer and analyzed by flow cytometry using the FITC channel and the BD FACSuite software. The data presented was based on the percentage of FITC-A mean intensity signal for 10,000 cells collected. All assays were performed in triplicates.
# [4] = Circular dichroism, estimate of secondary structure; type: physicochemical; conditions: CD, 100 µM peptide in water, principal component regression analysis
# Experimental: Samples were prepared in 100 µM concentration dissolved in water only. The cuvette with the 1 mm path length was used for all the measurements. The circular dichroism analysis was performed with a J-1500 Jasco spectrophotometer using nitrogen gas and PM-539 detector. Parameters were selected as follows: data interval 0.1 nm, data points 701, data pitch 0.1 nm, CD scale 200 mdeg/0.1 dOD, FL scale 200 mdeg/0.1 dOD, D.I.T 2 s, bandwidth 1 nm, cell length 1 mm, start mode immediately, scanning mode continuous, scanning speed 50 nm/min, shutter control auto, and N2 flowmeter manual. An average of three readings between 190 and 260 nm were collected for each sample. The analysis was carried out using one of Multivariate Regression Analyses, which is Principal Component Regression (PCR) with a basis set containing 26 proteins reference under the following conditions: standardization of result 100, replaced negative value to zero, and rejection percentage of 1%.
# [5] = Transmission electron microscopy, self-assembly; type: physicochemical; conditions: TEM, 30 μM, dried on grid overnight, not stained
# Experimental: Transmission electron microscopy (TEM) was done on a LVEM 5D Microscope model (Delong instruments, Brno, Czech Republic) samples were prepared on an Ultrathin Carbon Film on Lacey Carbon Support Film with 400 mesh copper from Ted Pella. Dilute solutions of 30 μM concentration were used for the TEM analysis. Samples were dropped on grids, evaporated overnight, and not stained. They were incubated for approximately 2 h after thawing from a freezer (0 to −18 °C). Samples were air-dried, and images were obtained with a LVEM5 (Delong Instruments, US) 5 keV field emission gun. The camera was Zyla 5.5 Scientific CMOS with specifications of exposure 50–200 [ms], pixel readout 200 MHz—lowest noise, dynamic range 12-bit (low noise), and summing 1.
# SK-OV-3 cells = type: cell-based, human; conditions: MTS, n = 3
# Experimental: as §1, §2
# HEK-293 cells = type: cell-based, human; conditions: HEK-293, 25 µM, 24 h incubation, MTS
# Experimental: SK-OV-3, CCRF-CEM, HEK-293, MDA-MB-468, LLC-PK1, and MES-SA were used to determine the cytotoxicity of the synthesized linear and cyclic peptides. About 5000, 10,000, and 50,000 cells were seeded for SK-OV-3, HEK-293, and CCRF-CEM cells, respectively, in 0.1 mL of medium per well of 96-well plates. […]
# Adhesive cells were detached with 0.05% trypsin/EDTA after 15 min. […] The cell viability was measured by utilizing Multi-Mode Microplate Reader (SpectraMax M5 model, Molecular Devices, San Jose, CA, USA) after adding 20 µL of the MTS reagent to each well and incubating for 3 additional hours. […] The percentage of cell viability was calculated using the following equation:(1) =(Average OD values of samples treated with the compound /Average OD values of no treatment samples )∗100
Structure (SMILES),Other (random coil) [4],Turn [4],α-helix [4],β-sheet [4],also measured
"N[C@H](C(=O)O)C(c1ccccc1)c1ccccc1 [Dip, 3,3-diphenyl-L-alanine]",–,–,–,–,Log P (partition coefficient) [1]: 2.93
N=C(N)NCCC[C@@H]1NC(=O)[C@H](C(c2ccccc2)c2ccccc2)NC(=O)[C@H](CCCNC(=N)N)NC(=O)[C@H](C(c2ccccc2)c2ccccc2)NC(=O)[C@H](CCCNC(=N)N)NC(=O)[C@H](C(c2ccccc2)c2ccccc2)NC(=O)[C@H](CCCNC(=N)N)NC(=O)[C@H](C(c2ccccc2)c2ccccc2)NC(=O)[C@H](CCCNC(=N)N)NC(=O)[C@H](C(c2ccccc2)c2ccccc2)NC(=O)[C@H](CCCCNC(=O)c2ccc3c(c2)C(=O)OC32c3ccc(O)cc3Oc3cc(O)ccc32)NC1=O [F’-[K(DipR)5]] (cyclo([Dip]R[Dip]R[Dip]R[Dip]R[Dip]RK(5FAM))),–,–,–,–,"cytotoxicity (CCRF-CEM cells [2]; 10 µM, 3 h and 24 h incubations): minimal cytotoxicity; cytotoxicity (CCRF-CEM cells [2]; 166 µM, 3 h incubation): no cytotoxicity"
"N[C@@H](Cc1c[nH]c2ccccc12)C(=O)O [W, tryptophan]",–,–,–,–,Log P (partition coefficient) [1]: 1.82
N=C(N)NCCC[C@@H]1NC(=O)[C@H](Cc2c[nH]c3ccccc23)NC(=O)[C@H](CCCNC(=N)N)NC(=O)[C@H](Cc2c[nH]c3ccccc23)NC(=O)[C@H](CCCNC(=N)N)NC(=O)[C@H](C(c2ccccc2)c2ccccc2)NC(=O)[C@H](CCCNC(=N)N)NC(=O)[C@H](C(c2ccccc2)c2ccccc2)NC(=O)[C@H](CCCNC(=N)N)NC(=O)[C@H](Cc2c[nH]c3ccccc23)NC1=O [[(DipR)2(WR)3]] (cyclo([Dip]R[Dip]RWRWRWR)),47.8%,12.8%,20.8%,18.6%,increase of cellular uptake of F’-GpYEEI vs cargo alone (CCRF-CEM cells [3]; F’-GpYEEI 2 µM): approximately 7 fold; morphology of self-assembled structures [5]: star-shaped particles; size of self-assembled structures [5]: 1000–2000 nm
N=C(N)NCCC[C@@H]1NC(=O)[C@H](Cc2c[nH]c3ccccc23)NC(=O)[C@H](CCCNC(=N)N)NC(=O)[C@H](C(c2ccccc2)c2ccccc2)NC(=O)[C@H](CCCNC(=N)N)NC(=O)[C@H](C(c2ccccc2)c2ccccc2)NC(=O)[C@H](CCCNC(=N)N)NC(=O)[C@H](C(c2ccccc2)c2ccccc2)NC(=O)[C@H](CCCNC(=N)N)NC(=O)[C@H](Cc2c[nH]c3ccccc23)NC1=O [[(DipR)3(WR)2]] (cyclo([Dip]R[Dip]R[Dip]RWRWR)),38.4%,17.0%,13.1%,31.5%,–
N=C(N)NCCC[C@@H]1NC(=O)[C@H](Cc2c[nH]c3ccccc23)NC(=O)[C@H](CCCNC(=N)N)NC(=O)[C@H](C(c2ccccc2)c2ccccc2)NC(=O)[C@H](CCCNC(=N)N)NC(=O)[C@H](C(c2ccccc2)c2ccccc2)NC(=O)[C@H](CCCNC(=N)N)NC(=O)[C@H](C(c2ccccc2)c2ccccc2)NC(=O)[C@H](CCCNC(=N)N)NC(=O)[C@H](C(c2ccccc2)c2ccccc2)NC1=O [[(DipR)4(WR)]] (cyclo([Dip]R[Dip]R[Dip]R[Dip]RWR)),39.7%,16.8%,8.6%,34.9%,–
N=C(N)NCCC[C@@H]1NC(=O)[C@H](Cc2c[nH]c3ccccc23)NC(=O)[C@H](CCCNC(=N)N)NC(=O)[C@H](Cc2c[nH]c3ccccc23)NC(=O)[C@H](CCCNC(=N)N)NC(=O)[C@H](C(c2ccccc2)c2ccccc2)NC(=O)[C@H](CCCNC(=N)N)NC(=O)[C@H](Cc2c[nH]c3ccccc23)NC(=O)[C@H](CCCNC(=N)N)NC(=O)[C@H](Cc2c[nH]c3ccccc23)NC1=O [[(DipR)(WR)4]],40.5%,13.8%,28.9%,16.8%,"reduction of cell proliferation (CCRF-CEM cells [2]; 24 h incubation): 47%; reduction of cell proliferation (CCRF-CEM cells [2]; 72 h incubation): 32%; reduction of cell proliferation (SK-OV-3 cells; SK-OV-3, 10 µM, 72 h incubation): 40%; reduction of cell proliferation (SK-OV-3 cells; SK-OV-3, 25 µM, 24 h incubation): 76%; reduction of cell proliferation (HEK-293 cells): 8%; increase of cellular uptake of F’-d4T vs cargo alone (CCRF-CEM cells [3]; F’-d4T 2 µM): 12 fold; morphology of self-assembled structures [5]: nanofiber structure; size of self-assembled structures [5]: ~50 nm"
